Reference: patent publication US20230117757A1, “COENZYME Q PRODUCTION ACCELERATOR AND METHOD FOR ACCELERATING COENZYME Q PRODUCTION” (priority 2020, published 2023)

System: HEK293 cells (human embryonic kidney cells)
Experiment: coenzyme Q10 production in mitochondria of HEK293 cells cultured with nicotinamide mononucleotide, quantified by LC-MS
Assay type: cell-based
Conditions: HEK293 cells cultured three days in DMEM medium with 1 mM or 2.5 mM β-nicotinamide mononucleotide daily added; control 0 mM
Protocol: To examine a production promoting effect of coenzyme Q10 caused by nicotinamide mononucleotide, HEK293 cells (human embryonic kidney cells) were cultured for three days (37° C., 5% CO2) in DMEM medium containing β-nicotinamide mononucleotide with a predetermined concentration (0 mM (control), 1 mM, and 2.5 mM daily added). Three days after the first day of culture, mitochondria were isolated from the HEK293 cells, and contained amounts of each of the reduced form (ubiquinol) and the oxidized form (ubiquinone) of coenzyme Q10 in the mitochondria were quantified by LC-MS method (LC column: KINETEX C18 column (Phenomenex), MS: Shimadzu LCMS-8060 (Shimadzu Corporation), eluent: 10 mM ammonium formate in Methanol, flow rate: 0.5 mL/minute, detection: MS/MS analysis by multiple reaction monitoring (MRM) method; Q10H2 883.6→197.15 m/z, Q10 881.4→197.15 m/z, Q9H2 815.6→197.15 m/z, Q9 813.6→197.15 m/z, Q8H2 747.6→197.15 m/z, Q8 745.6→197.15 m/z) (column: ODS, column temperature: 40° C., eluent: 70% acetonitrile/methanol (1:1) and 30% 0.05 M ammonium formate (prepared to be pH 7.2 with 10% ammonia water), flow rate: 1.0 mL/minute, detection: UV276 nm). […]

In the case of NC(=O)c1ccc[n+]([C@@H]2O[C@H](COP(=O)(O)O)[C@@H](O)[C@H]2O)c1 [nicotinamide mononucleotide], the “sum amount of the reduced form and the oxidized form of coenzyme Q10 in the mitochondria, change vs control” value was “approximately doubled”.
